Our source for the Activity values is ChEMBL document CHEMBL2074496, “Altered drug disposition of the platelet activating factor antagonist apafant in mdr1a knockout mice” (Eur J Pharm Sci, 2002).

In data set [1] the target is ATP-dependent translocase ABCB1 (Homo sapiens, UniProt P08183). Nature of the data set: TP_TRANSPORTER: transepithelial transport (basal to apical) in Caco-2 cells. Format: functional, cell-based.
Data set [2] concerns the target ATP-dependent translocase ABCB1 (Mus musculus, UniProt P21447). Nature of the data set: TP_TRANSPORTER: increase in brain concentration in mdr1a(-/-) mouse. The conditions noted are these: in vivo. Type of data set: functional, organism-based.

Sequence of ATP-dependent translocase ABCB1 (Homo sapiens, UniProt P08183) (P08183 whole entry): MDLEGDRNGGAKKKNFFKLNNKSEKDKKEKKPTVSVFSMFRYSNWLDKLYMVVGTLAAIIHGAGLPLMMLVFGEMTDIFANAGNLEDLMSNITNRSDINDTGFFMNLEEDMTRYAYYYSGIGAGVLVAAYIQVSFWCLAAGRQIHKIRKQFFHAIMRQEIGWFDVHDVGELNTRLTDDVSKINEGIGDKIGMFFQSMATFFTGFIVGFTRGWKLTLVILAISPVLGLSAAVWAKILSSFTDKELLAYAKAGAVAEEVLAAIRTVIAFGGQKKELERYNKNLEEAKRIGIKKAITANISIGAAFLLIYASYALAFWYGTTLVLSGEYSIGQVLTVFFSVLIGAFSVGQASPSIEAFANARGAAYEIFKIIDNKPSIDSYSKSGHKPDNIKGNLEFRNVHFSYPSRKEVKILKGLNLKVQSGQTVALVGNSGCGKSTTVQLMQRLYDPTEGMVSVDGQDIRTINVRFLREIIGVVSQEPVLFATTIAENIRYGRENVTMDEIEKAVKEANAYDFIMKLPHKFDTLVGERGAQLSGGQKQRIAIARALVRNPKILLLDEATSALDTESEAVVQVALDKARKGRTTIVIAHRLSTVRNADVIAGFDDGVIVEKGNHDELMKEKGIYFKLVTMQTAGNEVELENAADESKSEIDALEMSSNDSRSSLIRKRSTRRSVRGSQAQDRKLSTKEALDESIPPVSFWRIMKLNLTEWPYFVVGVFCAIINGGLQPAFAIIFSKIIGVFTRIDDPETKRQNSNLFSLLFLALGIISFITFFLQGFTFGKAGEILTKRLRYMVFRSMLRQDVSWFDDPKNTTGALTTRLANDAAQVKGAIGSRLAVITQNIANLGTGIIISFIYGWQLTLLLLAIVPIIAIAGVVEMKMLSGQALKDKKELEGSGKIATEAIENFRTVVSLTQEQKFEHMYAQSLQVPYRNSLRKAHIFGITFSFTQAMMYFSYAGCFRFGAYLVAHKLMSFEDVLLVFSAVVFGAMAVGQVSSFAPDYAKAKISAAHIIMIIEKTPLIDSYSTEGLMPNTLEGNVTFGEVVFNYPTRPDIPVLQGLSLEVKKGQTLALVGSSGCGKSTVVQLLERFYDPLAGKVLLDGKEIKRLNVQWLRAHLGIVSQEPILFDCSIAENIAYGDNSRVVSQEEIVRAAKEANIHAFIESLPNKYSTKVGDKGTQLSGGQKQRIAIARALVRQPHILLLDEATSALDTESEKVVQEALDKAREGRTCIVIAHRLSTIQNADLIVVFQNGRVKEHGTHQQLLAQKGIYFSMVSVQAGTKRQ
Sequence of ATP-dependent translocase ABCB1 (Mus musculus, UniProt P21447) (P21447 whole entry): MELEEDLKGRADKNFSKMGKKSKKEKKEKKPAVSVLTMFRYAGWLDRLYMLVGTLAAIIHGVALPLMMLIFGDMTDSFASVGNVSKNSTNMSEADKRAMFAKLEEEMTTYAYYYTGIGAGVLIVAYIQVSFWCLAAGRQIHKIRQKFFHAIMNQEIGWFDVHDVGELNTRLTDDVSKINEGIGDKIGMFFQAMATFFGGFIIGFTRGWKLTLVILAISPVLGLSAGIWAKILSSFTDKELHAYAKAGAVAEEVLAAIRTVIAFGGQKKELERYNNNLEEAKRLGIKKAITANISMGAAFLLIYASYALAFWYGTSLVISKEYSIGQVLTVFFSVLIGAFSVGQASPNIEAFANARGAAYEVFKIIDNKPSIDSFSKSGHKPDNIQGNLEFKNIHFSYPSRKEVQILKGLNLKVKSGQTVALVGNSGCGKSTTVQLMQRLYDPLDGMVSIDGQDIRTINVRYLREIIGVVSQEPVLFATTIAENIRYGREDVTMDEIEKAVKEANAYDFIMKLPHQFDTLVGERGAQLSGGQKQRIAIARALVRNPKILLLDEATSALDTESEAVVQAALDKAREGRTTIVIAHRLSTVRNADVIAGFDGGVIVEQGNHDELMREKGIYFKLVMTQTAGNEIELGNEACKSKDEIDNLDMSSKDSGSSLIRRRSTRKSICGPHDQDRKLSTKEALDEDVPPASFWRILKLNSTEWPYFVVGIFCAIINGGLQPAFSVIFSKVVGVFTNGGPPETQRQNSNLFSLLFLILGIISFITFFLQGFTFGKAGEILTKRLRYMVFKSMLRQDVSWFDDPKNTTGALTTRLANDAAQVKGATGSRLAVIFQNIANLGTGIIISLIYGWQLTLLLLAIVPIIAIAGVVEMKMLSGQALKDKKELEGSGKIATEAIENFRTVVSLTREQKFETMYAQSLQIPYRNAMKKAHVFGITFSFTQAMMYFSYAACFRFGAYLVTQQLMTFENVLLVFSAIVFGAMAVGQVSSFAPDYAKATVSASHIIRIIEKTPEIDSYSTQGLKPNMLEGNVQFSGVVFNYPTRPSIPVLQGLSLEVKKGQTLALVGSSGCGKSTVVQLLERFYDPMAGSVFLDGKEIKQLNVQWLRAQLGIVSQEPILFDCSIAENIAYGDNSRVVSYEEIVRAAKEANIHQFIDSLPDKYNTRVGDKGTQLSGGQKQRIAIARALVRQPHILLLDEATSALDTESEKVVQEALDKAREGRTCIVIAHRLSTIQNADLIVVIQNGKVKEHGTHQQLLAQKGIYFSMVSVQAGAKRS

Turning to `Cc1nnc2n1-c1sc(CCC(=O)N3CCOCC3)cc1C(c1ccccc1Cl)=NC2` [APAFANT], the Activity result in data set [1] and in data set [2] was “substrate [+]” in each case.
